From patent US20100120715A1, “BETA-LACTAMASE INHIBITORS” (priority 2007, published 2010)
Like-named read-outs stand apart in the source and are kept apart here.

What was measured:
[1] = target: T1, Class A ESBL CTXM-15 (Escherichia coli, UniProt Q9EXV5); experiment: β-lactamase enzyme inhibition (nitrocefin hydrolysis), CTXM-15; assay type: biochemical; details: purified enzyme; nitrocefin 100 μM, PBS pH 7.0; read-out: CTXM-15 IC50 Range
T1 construct: made in house; host or cells: E. coli BL21(DE3)
T1 sequence (Q9EXV5 entry or part of it): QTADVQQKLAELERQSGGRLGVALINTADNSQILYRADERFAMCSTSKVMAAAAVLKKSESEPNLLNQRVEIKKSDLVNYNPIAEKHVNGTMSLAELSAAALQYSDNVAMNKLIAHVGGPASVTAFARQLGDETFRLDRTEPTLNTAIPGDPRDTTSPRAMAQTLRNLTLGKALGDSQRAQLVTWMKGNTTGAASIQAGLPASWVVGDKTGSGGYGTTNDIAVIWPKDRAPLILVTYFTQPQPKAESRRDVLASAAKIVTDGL
Method: (§1) Isolation of β-lactamases. For all examples, purified beta-lactamase enzymes were used to measure a compounds' ability to inhibit the Class A ESBL CTXM-15, the Class C P99 AmpC and the Class A carbapenemase KPC-2. […] The enzyme preparations are described herein.
(§2) For the isolation and purification of SHV-5, p99 AmpC, KPC-2 and CTX-M15 β-lactamases, E. coli BL21(DE3) bacterial cells carrying expression plasmids (expressed as native untagged proteins) for the individual β-lactamases were grown in 1 L of Superbroth (Teknova Inc. Hollister, Calif.) supplemented with 100 μg/ml kanamycin and 1×5052 (0.5% glycerol, 0.05% glucose and 0.2% α-lactose) at 35° C. for 18-20 hours. Cells were harvested by centrifugation (4,000×g, 4° C., 20 min), and resuspended in 50 ml of 10 mM HEPES pH 7.5 ( 1/20 of the initial volume). The cells were lysed by sonication (5 pulses of 45 seconds) at 45 W on ice. The lysates were clarified by centrifugation at 10,000×g for 40 minutes at 4° C. Samples were diluted 5-fold in 50 mM sodium acetate pH 5.0, stored overnight at 4° C., after which they were centrifuged at 10,000×g for 30 minutes to clarify, and filtered through 0.45 μm filters. The samples were loaded onto a 5 ml Capto S sepharose cation exchange column (GE Healthcare) pre-equilibrated with 50 mM sodium acetate pH 5.0. The column was washed with 5 column volumes of 50 mM sodium acetate pH 5.0 to wash out unbound protein and a linear gradient of NaCl (0 to 500 mM) was used to elute the protein (over 16 CV) from the column. Fractions were assayed for β-lactamase activity using Centa (Calbiochem, Gibbstown, N.J.) as a reporter β-lactamase substrate for activity in the isolated fractions. Active fractions were pooled, concentrated and further purified by gel filtration chromatography on a Superdex 75 prep grade gel filtration column (GE Healthcare, Piscataway, N.J.) pre-equilibrated in 50 mM Hepes pH 7.5, 150 mM NaCl. Active fractions were pooled concentrated, quantitated by BCA protein determination (Thermo Scientific, Rockford, Ill.), and frozen at −80° C. in 20% glycerol until use.
(§3) β-lactamase Inhibition. To determine the level of inhibition of β-lactamaseenzymes, compounds were diluted in PBS at pH 7.0 to yield concentrations between 100 and 0.005 μM in microtiter plates. An equal volume of diluted enzyme stock was added, and the plates were incubated at 37° C. for 10 min. Nitrocefin solution was then dispensed as substrate into each well at a final concentration of 100 μM, and the plates were immediately read with the kinetic program at 486 nm for 10 min on the SPECTRAMAX® Plus^384 (high-throughput microplate spectrophotometer; Molecular Devices Corp., Sunnyvale, Calif.). Maximum rates of metabolism were then compared to those in control wells (without inhibitors), and percentages of enzyme inhibition were calculated for each concentration of inhibitor. The concentration of inhibitor needed to reduce the initial rate of hydrolysis of substrate by 50% (IC50) was calculated as the residual activity of β-lactamase at 486 nm using the SoftMax Pro 5.0 software (Molecular Devices Corp.).

[2] = target: T2, Class A carbapenemase KPC-2 (Klebsiella pneumoniae, UniProt Q9F663); experiment: β-lactamase enzyme inhibition (nitrocefin hydrolysis), KPC-2; assay type: biochemical; details: purified enzyme; nitrocefin 100 μM, PBS pH 7.0; read-out: KPC-2 IC50 Range
T2 construct: made in house; host or cells: E. coli BL21(DE3)
T2 sequence (Q9F663 25-293 limits assumed): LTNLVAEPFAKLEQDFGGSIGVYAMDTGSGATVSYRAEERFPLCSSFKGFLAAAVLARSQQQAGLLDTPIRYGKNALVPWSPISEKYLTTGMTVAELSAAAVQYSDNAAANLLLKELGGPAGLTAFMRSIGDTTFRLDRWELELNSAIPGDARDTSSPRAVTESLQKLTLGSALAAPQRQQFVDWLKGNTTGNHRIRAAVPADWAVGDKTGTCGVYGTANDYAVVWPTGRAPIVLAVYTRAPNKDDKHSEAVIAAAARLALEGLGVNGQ
Method: as §1, §2, §3

[3] = target: T3, Class C P99 AmpC (Enterobacter cloacae, UniProt P05364); assay type: biochemical; details: purified enzyme; nitrocefin 100 μM, PBS pH 7.0; read-out: P99 AmpC IC50 Range
T3 construct: made in house; host or cells: E. coli BL21(DE3)
T3 sequence (P05364 21-381): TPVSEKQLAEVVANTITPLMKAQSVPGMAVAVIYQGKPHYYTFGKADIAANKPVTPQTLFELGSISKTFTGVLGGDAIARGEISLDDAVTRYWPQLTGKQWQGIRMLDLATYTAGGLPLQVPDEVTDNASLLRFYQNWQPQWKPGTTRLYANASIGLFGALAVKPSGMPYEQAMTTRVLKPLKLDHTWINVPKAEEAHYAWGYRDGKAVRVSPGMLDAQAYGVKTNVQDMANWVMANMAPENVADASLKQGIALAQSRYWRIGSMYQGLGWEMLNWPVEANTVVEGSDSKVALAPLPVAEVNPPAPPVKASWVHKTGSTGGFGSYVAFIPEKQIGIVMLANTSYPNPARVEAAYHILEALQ
Method: as §1, §2, §3

[4] = tested on: K. pneumoniae expressing the Class A carbapenemase KPC-2; experiment: microbe, parasite or virus in culture; details: in the presence of fixed 8 μg/mL Ceftazidime
From the text: (§4) To determine the ability of test compounds to potentiate the inhibition of the growth of bacterial strains producing beta-lactamase enzymes, classic cell based screening assays were employed. Four bacteria strains producing beta-lactamase enzymes were used: K. pneumoniae expressing the Class A Extended Spectrum Beta-Lactamase (ESBL) CTX-M-15, E. coli expressing the Class A ESBL SHV-5, E. cloacae expressing the Class C P99+, and K. pneumoniae expressing the Class A carbapenemase KPC-2. In order to evaluate the ability of test compounds to inhibit beta-lactamase activity, Applicants used a modification of the broth microdilution assay. The assay was conducted in Cation Adjusted Mueller Hinton Broth (CAMHB, BD # 212322, BD Diagnostic Systems, Sparks, Md.). Bacteria strains were grown for 3-5 hours in CAMBH broth. All four strains were grown in presence of 50 μg/mL ampicillin to ensure resistance is maintained. In the meantime, test compounds were diluted in DMSO to a 0.1 mg/mL stock. The compounds were added to a microtiter plate and were diluted in 2-fold serial dilutions in CAMHB in a final concentration range of 8 μg/mL to 0.015 μg/ml. An overlay of CAMHB containing a cephalosporin was added to the compounds at a final static concentration of 8 μg/ml. […] Each of these compound plates are made in quadruplicate, one for each bacteria strain. In addition to the titration of test compounds the MICs of a panel of cephalosporins is also tested to ensure the strains are behaving consistently from test to test. Once the test compound and cephalosporin are added the plates can be inoculated. Inocula are conducted according to CLSI broth microdilution method. After inoculation the plates are incubated for 16-20 hours at 37° C. then the Minimal Inhibitory Concentration (MIC) of the test compound is determined visually.

[5] = target: T4, Class A ESBL SHV-5 (Klebsiella pneumoniae, UniProt P0A3M1); assay type: biochemical, E. coli; details: nitrocefin 100 μM, PBS pH 7.0, read-out: SHV-5 IC50 Range
T4 construct: made in house; host or cells: E. coli BL21(DE3) for purified enzyme; E. coli cells containing SHV-5 for extracts
T4 sequence (P0A3M1 22-286): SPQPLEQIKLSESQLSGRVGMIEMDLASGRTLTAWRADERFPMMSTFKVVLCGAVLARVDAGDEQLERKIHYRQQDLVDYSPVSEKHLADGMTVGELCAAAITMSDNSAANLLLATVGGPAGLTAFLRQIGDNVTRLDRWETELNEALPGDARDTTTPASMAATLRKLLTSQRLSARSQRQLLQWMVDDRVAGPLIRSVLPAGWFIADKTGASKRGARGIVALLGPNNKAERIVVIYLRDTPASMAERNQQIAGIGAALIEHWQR
Method: as §1
For the preparation of SHV-5 extracts, E. coli cells containing SHV-5 were cultured overnight with shaking at a volume of 20 mL. They were further diluted 10-fold and grown to mid-log phase (OD at 600 nm, 0.5-0.8) in Mueller-Hinton II (MH-II) broth at 37° C. The cells were pelleted at 5000 g, washed and resuspended in 2 mL PBS pH 7.0. The β-lactamase was extracted by four cycles of freezing and thawing followed by centrifugation. β-lactamase activity in the extract was measured with the chromogenic cephalosporin nitrocefin. The amount of protein in each β-lactamase preparation was determined by the bicinchoninic acid (BCA) assay.
as §2, §3

[6] = tested on: K. pneumoniae expressing the Class A ESBL CTX-M-15; experiment: microbe, parasite or virus in culture; assay type: cell-based; details: in the presence of fixed 8 μg/mL Ceftazidime
From the text: as §4, with “An overlay of CAMHB containing a cephalosporin was added to the compounds at a final static concentration of 8 μg/ml.” left out

[7] = purified beta-lactamase enzyme (Examples 1 and 31-64)
[8] = cellular extracts of E. coli containing SHV-5 (Examples 2-30)

| SMILES | IC50 [1] [nM] | IC50 [2] [nM] | IC50 [3] [nM] | MIC of example compound, K. pneumoniae KPC-2 + 8 μg/mL CAZ [4] | IC50 [5, 7] [nM] | MIC of example compound, K. pneumoniae CTX-M-15 + 8 μg/mL CAZ [6] | IC50 [5, 8] [nM] |
| --- | --- | --- | --- | --- | --- | --- | --- |
| O=C(CN1C(=O)c2ccccc2C1=O)N[C@@H](Cc1cccc(C(=O)O)c1O)B(O)O [Example 45, (1R)-1-(2-(1,3-dioxoisoindolin-2-yl)acetylamino)-2-(2-hydroxy-3-carboxyphenyl)ethyl-1-boronic acid] | < 10 | < 10 | < 10 | C (C represents an MIC of <1 μg/mL) | < 10 |  |  |
| O=C(N[C@@H](Cc1cccc(C(=O)O)c1O)B(O)O)c1cnccn1 [Example 58, (1R)-1-(Pyrazine-2-carbonyl-amino)-2-(2-hydroxy-3-carboxyphenyl)ethyl-1-boronic acid] | < 10 | < 10 | 10 to 100 | C (C represents an MIC of <1 μg/mL) | 10 to 100 |  |  |
| O=C(Cc1cccc(O)c1)N[C@@H](Cc1cccc(C(=O)O)c1O)B(O)O [Example 3, (1R)-1-(3-hydroxy-phenyl)acetylamino-1-(3-carboxy-2-hydroxy)benzyl-methyl boronic acid] | < 10 |  | < 10 | C (C represents an MIC of <1 μg/mL) |  | C (C represents an MIC of <1 μg/mL) | < 10 |
| O=C(N[C@@H](Cc1cccc(C(=O)O)c1O)B(O)O)c1ccc(Cl)cc1 [Example 32, (1R)-1-(4-Chloro-benzoyl)-amino-1-(3-carboxy-2-hydroxy)benzyl-methylboronic acid] | < 10 | < 10 | < 10 | C (C represents an MIC of <1 μg/mL) | 10 to 100 |  |  |
| O=C(O)c1cccc(C[C@H](NC(=O)c2cccc3ccccc23)B(O)O)c1O [Example 27, (1R)-1-(1-naphthoylamino)-2-(2-hydroxy-3-carboxyphenyl)ethyl-1-boronic acid] | < 10 | < 10 | < 10 | C (C represents an MIC of <1 μg/mL) |  |  | 10 to 100 |
| O=C(N[C@@H](Cc1cccc(C(=O)O)c1O)B(O)O)c1cccc(-n2ccnc2)c1 [Example 57, (1R)-1-(3-Imidazol-1-yl-benzoylaminoamino)-2-(2-hydroxy-3-carboxyphenyl)ethyl-1-boronic acid] | < 10 | < 10 | < 10 | C (C represents an MIC of <1 μg/mL) | < 10 |  |  |
| Cc1ccccc1C(=O)N[C@@H](Cc1cccc(C(=O)O)c1O)B(O)O [Example 30, (1R)-1-(2-methylbenzoylamino)-2-(2-hydroxy-3-carboxyphenyl)ethyl-1-boronic acid] | < 10 | < 10 | < 10 | C (C represents an MIC of <1 μg/mL) |  |  | 10 to 100 |
| O=C(N[C@@H](Cc1cccc(C(=O)O)c1O)B(O)O)c1ccccc1O [Example 35, (1R)-1-(2-hydroxybenzoylamino)-2-(2-hydroxy-3-carboxyphenyl)ethyl-1-boronic acid] | < 10 | 10 to 100 | < 10 | C (C represents an MIC of <1 μg/mL) | 10 to 100 |  |  |
| O=C(N[C@@H](Cc1cccc(C(=O)O)c1O)B(O)O)c1ccncc1 [Example 55, (1R)-1-(Pyridine-4-carbonyl-amino)-2-(2-hydroxy-3-carboxyphenyl)ethyl-1-boronic acid] | < 10 | < 10 | < 10 |  | 10 to 100 |  |  |
| CC(=O)Nc1nc(CC(=O)N[C@@H](Cc2cccc(C(=O)O)c2O)B(O)O)cs1 [Example 63, (1R)-1-((2-Acetylamino-thiazol-4-yl)-acetylamino)-2-(2-hydroxy-3-carboxyphenyl)ethyl-1-boronic acid] | < 10 | < 10 | < 10 | C (C represents an MIC of <1 μg/mL) | < 10 |  |  |
| COc1ccc(C(=O)N[C@@H](Cc2cccc(C(=O)O)c2O)B(O)O)cc1 [Example 33, (1R)-1-(4-Methoxybenzoyl)-amino-1-(3-carboxy-2-hydroxy)benzyl-methylboronic acid] | < 10 | < 10 | < 10 | C (C represents an MIC of <1 μg/mL) | 100 to 1000 |  |  |
